From article PMC5743200 (Journal of medicinal chemistry, 2017)
Entries after “also recorded” stand apart in the source; their conditions may differ.

Legend:
HK853 = HK853 (Thermotoga maritima, UniProt Q9WZV7); assay: Inhibition of HK853 activity, BODIPY-ATPγS competition, in-gel fluorescence; type: biochemical; settings: for IC50 values (μM) (95% confidence interval), n = 2: HK853 inhibitory activity, value (95% confidence interval)
HK853 D411N = assay: Thermal shift assay; settings: D411N alone Tm 67 °C; inhibitor 1 mM; no significant change
HSP90α = HSP90α (Homo sapiens, UniProt P07900); assay: HSP90 inhibition assay, fluorescence polarization Hsp90α kit; type: binding
WT HK853 = assay: Thermal shift assay; settings: WT HK853 alone Tm = 70 °C; inhibitor 1 mM

Nc1nc(Cl)c2ncn([C@@H]3O[C@H](CO)[C@@H](O)[C@H]3O)c2n1 [Compound 20, 2-amino,6-chloropurine ribose]
HK853 inhibition, result in words (HK853): negligible activity

Nc1nc2[nH]cnc2c(=O)[nH]1 [Guanine, reference compound]
HK853 inhibition, result in words (HK853): neither guanine or guanosine inhibited HK853

Nc1nc(N)c2ncn([C@@H]3O[C@H](CO)[C@@H](O)[C@H]3O)c2n1 [Compound 14, aminoadenosine]
HK853 inhibition, result in words (HK853): negligible activity

c1ccc(Nc2ncnc3[nH]cnc23)cc1 [Compound 22, 6-anilinopurine]
fold superior potency compared to 3 (HK853; HK853): ~20 fold
fold superior potency compared to 9 (HK853; HK853): ~60 fold

CCCN(CCC)c1[nH]cnc2ncnc1-2 [Compound 1, 6-N,N-dipropyl adenine]
change in the Tm value of HK853 D411N (HK853 D411N): ≤ 2 °C

Nc1ncnc2[nH]nnc12 [Compound 30, 8-azadenine]
HK853 inhibition, result in words (HK853): minimal activity

OC[C@H]1O[C@@H](n2cnc3c(Nc4ccccc4)ncnc32)[C@H](O)[C@@H]1O [Compound 23, 6-anilinopurine ribose]
HK853 inhibition, result in words (HK853): failed to inhibit
IC50 values (μM) (95% confidence interval), n = 2 (HK853): No Inhibition

Nc1nc(N)c2nc[nH]c2n1 [Compound 13, 2-aminoadenine]
HK853 inhibition, result in words (HK853): negligible activity

OC[C@H]1O[C@@H](n2cnc3c(NCCc4ccccc4)ncnc32)[C@H](O)[C@@H]1O [Compound 10, 6-N-phenylethyladenosine]
HK853 inhibition, result in words (HK853): negligible activity
fold decreased potency (HK853; HK853, riboside 10 versus lead 3): > 20 fold

c1ccc(CCNc2ncnc3[nH]cnc23)cc1 [Compound 3, 6-N-phenylethyladenine]
IC50 (HSP90α): ≤ 1250 µM

Nc1nc2c(ncn2[C@@H]2O[C@H](CO)[C@@H](O)[C@H]2O)c(=O)[nH]1 [Guanosine, reference compound]
HK853 inhibition, result in words (HK853): neither guanine or guanosine inhibited HK853
IC50 values (μM) (95% confidence interval), n = 2 (HK853): No Inhibition

Nc1ncnc2c1ncn2[C@@H]1O[C@H](COP(=O)(O)OP(=O)(O)O)[C@@H](O)[C@H]1O [Compound 6, ADP, reference compound]
Tm of WT HK853 in the presence of compound (WT HK853): 80 °C
change in the Tm value of HK853 D411N (HK853 D411N): ≤ 2 °C

CC1CC(Nc2ncnc3nc[nH]c23)CC(C)(C)C1 (stereo not drawn) [Compound 4, 6-N,N-(3,3,5-trimethylcyclohexyl) adenine]
IC50 (HSP90α): ≤ 1250 µM

Nc1nc2ncnc-2c[nH]1 [Compound 21, 2-aminopurine]
HK853 inhibition, result in words (HK853): low affinity; also recorded: negligible activity

Cn1cnc2nc(Cl)nc(N)c21 [Compound 28, 2-chloro,7-N-methyladenine]
HK853 inhibition, result in words (HK853): inactive
IC50 values (μM) (95% confidence interval), n = 2 (HK853): No Inhibition

O=c1[nH]cnc2c1ncn2[C@@H]1O[C@H](CO)[C@@H](O)[C@H]1O [Inosine, reference compound]
IC50 values (μM) (95% confidence interval), n = 2 (HK853): No Inhibition

Cn1cnc2ncnc(N)c21 [Compound 26, 7-N-methyladenine]
HK853 inhibition, result in words (HK853): failed to show any activity
IC50 values (μM) (95% confidence interval), n = 2 (HK853): No Inhibition
